Here are results for 7 molecules from PubChem BioAssay (NCI).

SMILES strings stand for the structures.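 Cultured in 96-well plates, cells were exposed to test compound for 48 hours across five concentrations. GI50: concentration for 50% inhibition of growth. TGI denotes the concentration required for complete inhibition of growth.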

Test in all cases: NCI tumour cell line growth inhibition, 48 h
Experiment [1] relates to SN12C renal.
For experiment [2], the system named is M14 melanoma.
Experiment [3] concerns CCRF-CEM leukemia.
Experiment [4] has as its system NCI-H23 lung.
For experiment [5], the system named is SNB-19 CNS.
Experiment [6] relates to TK-10 renal.
Experiment [7] relates to K-562 leukemia.
Experiment [8] has as its system SF-295 CNS.
For experiment [9], the system named is IGROV1 ovarian.
Experiment [10] has as its system CAKI-1 renal.

Consider `CC(=O)OC12c3ccccc3C1CCCCCC21OCCCO1` (stereo not given), for which the TGI in experiment [1], in experiment [2], in experiment [3], in [4], in [5] and in experiment [6] was over 100 µM in each case. Moreover, the TGI in experiment [7], in experiment [8], in experiment [9] and in [10] was over 100 µM in each case.
For `O=c1cc(Cl)nc[nH]1`, the TGI in experiment [1], in experiment [2], in [3], in experiment [4], in [5] and in experiment [6] was over 100 µM each time. Also, the TGI in experiment [7], in [8], in [9] and in [10] was over 100 µM each time.
With `O=C1c2ccccc2C(=O)N1c1ccc(S(=O)(=O)Nc2ncccn2)cc1`, the GI50 in experiment [1] is over 100 µM; in [2], over 100 µM; in experiment [3], 9.79 µM; in experiment [4] it was over 100 µM; in [5], over 100 µM; in [6], over 100 µM. Besides, the GI50 in [7], in experiment [8], in [9] and in [10] was over 100 µM throughout. Also, the TGI in [1], in [2], in [3], in [4], in experiment [5] and in experiment [6] was over 100 µM throughout. Moreover, the TGI in experiment [7], in experiment [8], in [9] and in experiment [10] was over 100 µM in each case.
As to `COc1ccc(C(O)CNC(=O)c2ccccc2)cc1` (stereo not given), the TGI in experiment [1], in experiment [2], in experiment [3], in experiment [4], in experiment [5] and in experiment [6] was over 100 µM in each case. For the same molecule, the TGI in experiment [7], in experiment [8], in experiment [9] and in experiment [10] was over 100 µM in each case.
On to `Cc1cc(NS(=O)(=O)c2ccc(NC(=O)c3cccc4c(N)c5ccccc5nc34)cc2)no1`, for which the TGI in experiment [1] was 40.3 µM; in experiment [2] it was 54 µM; in [3], 66.5 µM; in experiment [4], 52.2 µM; in [5] it was 34 µM; in [6], over 100 µM. Besides, the TGI in [7] was over 100 µM; in experiment [8] it was 67.2 µM; in [9], 59.3 µM; in experiment [10], 80.4 µM.
Regarding `COc1ccc2c3c1C(=O)CCC3CO2` (stereo not given), the TGI in experiment [1], in experiment [2], in experiment [3], in [4], in [5] and in experiment [6] was over 100 µM each time. For the same molecule, the TGI in experiment [7], in [8], in experiment [9] and in [10] was over 100 µM in each case.
With `CC(=O)O[C@@H]1CO[C@H]2O[C@H]3[C@@H](C(C=O)=C[C@H](O)[C@@H]4C5=C(C(C)C)CC[C@]5(C)CC[C@@]34C)[C@@]2(O)C1=O`, the TGI was found to be 0.448 µM in experiment [1]; 0.723 µM in [2]; 0.418 µM in [3]; 0.893 µM in experiment [4]; 1.97 µM in experiment [5]; 0.596 µM in experiment [6]. The TGI worked out at 0.368 µM in [7], 3.98 µM in experiment [8], 0.714 µM in experiment [9] and 0.486 µM in experiment [10].
